Data reported in ChEMBL document CHEMBL3045791, “Pharmacological screening for anti-inflammatory, analgesic activity of pyrazolyl derivatives along with molecular docking studies” (Med Chem Res, 2012).

Legend:
Rattus norvegicus [1] = experiment: Anti-inflammatory activity in Rattus norvegicus Wistar albino (rat) assessed as inhibition of carrageenan-induced hind paw edema at 10 mg/kg, po measured at 3 hr relative to control; type: functional
Rattus norvegicus [2] = experiment: Analgesic activity in Rattus norvegicus Wistar albino (rat) at 20 mg/kg, ip measured at 30 min by tail immersion method relative to control; type: functional; details: route intraperitoneal
Rattus norvegicus [3] = experiment: Anti-inflammatory activity in Rattus norvegicus Wistar albino (rat) assessed as inhibition of carrageenan-induced hind paw edema at 10 mg/kg, po measured at 4 hr relative to control; type: functional
Rattus norvegicus [4] = experiment: Ulcerogenic activity in Rattus norvegicus Wistar albino (rat) stomach assessed as ulcer index at 30 mg/kg, po measured after 17 hr relative to control; type: toxicity, organism-based; set-up: dose 30 mg/kg, route oral; details: in vivo
Rattus norvegicus [5] = experiment: Antioxidant activity in Rattus norvegicus Wistar albino (rat) stomach assessed as decrease in malondialdehyde content measured per 100 mg of tissue at 30 mg/kg, po after 60 min by spectrophotometric analysis (reference value: 3.86 +/- 0.19 nmol); type: functional

| SMILES | inhibition in vivo at 10 mg/kg (Rattus norvegicus [1]) [%] | Activity (Rattus norvegicus [2]) [%] | inhibition in vivo at 10 mg/kg (Rattus norvegicus [3]) [%] | UI (Rattus norvegicus [4]) | Activity (Rattus norvegicus [5]) [nmol] |
| --- | --- | --- | --- | --- | --- |
| Cc1nn(-c2ccccc2)c(Cl)c1/C=N/NC(=O)c1ccc([N+](=O)[O-])cc1 | 12.1 | 92.8 | 54.4 |  |  |
| Cc1nn(-c2ccccc2)c(Cl)c1/C=N/NC(=O)c1ccc(Cl)cc1Cl | 51.5 | 172.6 | 74.7 |  |  |
| Cc1nn(-c2ccccc2)c(Cl)c1/C=N/NC(=O)COc1ccccc1 |  |  |  | 0.41 |  |
| Cc1nn(-c2ccccc2)c(Cl)c1/C=N/NC(=O)c1ccc(F)cc1 | 36.4 | 187.8 | 67.1 |  |  |
| Cc1nn(-c2ccccc2)c(Cl)c1/C=N/NC(=O)c1ccc(Cl)cc1 | 42.4 | 160.4 | 63.3 | 0.25 | 4.51 |
| Cc1nn(-c2ccccc2)c(Cl)c1/C=N/NC(=O)Cc1cccc2ccccc12 | 42.4 | 116.3 | 55.7 |  |  |
| Cc1nn(-c2ccccc2)c(Cl)c1/C=N/NC(=O)Cc1ccc(Cl)cc1 | 57.6 | 193.1 | 70.9 |  |  |
| Cc1nn(-c2ccccc2)c(Cl)c1/C=N/NC(=O)c1ccccc1Cl |  | 149 |  |  |  |
| Cc1nn(-c2ccccc2)c(Cl)c1/C=N/NC(=O)c1ccc(Br)cc1 |  | 158.7 |  |  |  |
| O=C(O)Cc1ccccc1Nc1c(Cl)cccc1Cl [DICLOFENAC] |  | 749.3 |  |  |  |
| COc1ccc2c(c1)c(CC(=O)O)c(C)n2C(=O)c1ccc(Cl)cc1 [INDOMETHACIN] | 48.5 |  | 77.2 | 4.5 | 21.98 |
